Results published in US20100087534A1, “Use of a Photosensitizing Agent in the Treatment or Prevention of an Inflammation-Associated Disorder in the Gastrointestinal Tract of a Mammal” (priority 2005, published 2010).

Columns and labels:
[1] = tested on: iNOS; experiment: Expression index of iNOS mRNA in illuminated colon, quantitative real-time PCR; format: in vivo, BALB/c mice; settings: high dose PDT: 50 J/cm^2, 60 mg δ-ALA; 74 h; unmanipulated mice index=1
From the text: The third portion was used for measuring the expression of the molecules involved in immune and inflammatory phenomenons in the colonic mucosa (cytokines, chemokines). For RNA extraction this portion was conserved in RNA-later solution (Ambion Inc. Austin, USA) until processing. RNA was extracted from the tissues using a Rneasy Mini kit (Qiagen, Hombrechtikon, Switzerland). RNA samples were submitted to a second or third DNAse treatment in order to get rid of all traces of genomic DNA. Quality of the RNA samples was tested on agarose gels and absence of genomic DNA was tested by PCR using primers specific for a house keeping gene, glyceraldehydes-3-phosphate-dehydrogenase (GAPDH). […] Quantification of reverse transcripted messenger RNA for GAPDH, the inducible nitric oxide synthetase (iNOS), interferon-gamma (IFN-γ), interleukin-1 receptor antagonist (IL1-Ra), tumor necrosis factor alpha (TNF-α), interleukin 6 (IL-6), tumor growth factor beta (TGF-13) and interleukin10 (IL-10) was performed by quantitative real-time PCR in a BioRad Real-time PCR iCycler using specific pairs of primers and the green fluorescence dye SYBR—Green®. GAPDH was used to normalize quantifications within each individual sample (normalization of the number of mRNA copies for the gene of interest/1 million mRNA copies of the GAPDH gene of the investigated mouse). […]

[2] = tested on: SCID mice with colitis induced by transfer of CD4+CD45RBhigh T-cells; experiment: PDT in CD4+CD45RBhigh transfer colitis, clinical and endoscopic follow-up (Example 1); format: in vivo
Experimental: b) A rigid mini-endoscope Hopkins I (vision direct 0°, length 10 cm, diameter 1.9 mm, Anklin, Binningen, Switzerland) with a 9 Charrière (Ch) tube and a channel for instrumentation (Flexible biopsy forceps Ch 3, 53 cm length) coupled on the Coloview Basic equipment (light source Xenon 175 and Endovision Telecam SLB; Storz Inc, Tuttlingen, Germany) and the home made air inflation system (see above). […] First the colonoscopy technique was optimised in 10 wild type BALB/c mice and 10 SCID mice, which were colonoscoped repeatedly (3 times within a 2 weeks time period). Afterwards the accuracy of colonoscopy in diagnosis colitis was evaluated in BALB/c mice with sodium dextran sulfate (DSS) induced colitis and in SCID mice with colitis induced by transfer of a subpopulation of CD4+CD45RBhigh T-cells. For this purpose the mice were colonoscoped at diverse time points after onset of DSS administration or T-cell transfer and the endosocpic image was compared with the endoscopic image of normal mice and the histology after sacrificing the mice.
To induce CD4+ CD45RBhigh transfer colitis, T cells used for the adoptive transfer of the SCID mice were obtained from the spleens of six weeks old wild type BALB/c mice that were housed under specific pathogen-free (SPF) conditions at our animal care facility. Mice were sacrificed by cervical dislocation under anesthesia and spleen were recovered and kept in cold RPMI 1640 medium complemented with a final concentration of 2% fetal calf serum (FCS) until processing. The tissue was forced through 70 μm and 40 μm nylon meshes and washed. Spleen cells were then centrifugated and the pellet was resuspended in 5 ml of cold medium for counting. The cellular preparation was then enriched in CD4+ cells by magnetic cell sorting using CD4 (L3T4) MACS microbeads (Miltenyi Biotec, Gladbach, Germany). The enriched cells were then stained using fluorescein isothiocynate (FITC)-conjugated anti-CD4 and phyoerythrin (PE)—conjugated anti-CD45RB monoclonal antibodies (BD, Biosciences Pharmingen, San Diego, USA). CD4+CD45RB high cells were sorted by FACS, resuspended in PBS at the concentration of 10^6 cells/ml and finally 10^5 cells were injected intravenously under sterile conditions into 4-6 weeks old SCID mice.
Colonoscopy could safely be performed in normal BALB/c mice and SCID mice. The mouse colon could be intubated up to the right flexure. The length of the accessible mouse colon was approximately 4 cm with the rectum comprised. In DSS induced colitis a correlation between colitis and weight loss was observed, whereas in SCID mice with colitis after CD4+CD45RB^high T-cell transfer, endoscopic signs of colitis developed earlier as weight loss and the correlation between endoscopic signs of colitis and weight loss was less good. The colitis in DSS mice was segmental, the rectum was always spared, erythema, ulcerations, changes of the normal vascular pattern could be observed. […] Furthermore, since the length of the accessible mouse colon was only about 4 cm, they changed their scoring system concerning the length.

[3] = of the 4 mice which developed signs of severe disease

NCC(=O)CCC(=O)O [δ-ALA, 5-aminolevulinic acid]
expression index iNOS [1]: 27.78±10.47 | signs of photosensitivity or damage of the mucosa ([2]; any of the animals): No signs of photosensitivity or damage of the mucosa was observed | endoscopic severity index after PDT ([2]; mice that could be followed up by colonoscopy): improved significantly | mice cured by PDT [2, 3]: 2 mice | mice with improved clinical signs after PDT [2, 3]: one | mice without clinical response ([2]; one of the 4 mice which developed signs of severe disease): 25%
